Assay results: patent publication EP2125023B1, “SOLUBLE FORMS OF INCLUSION COMPLEXES OF HISTONE DEACETYLASE INHIBITORS AND CYCLODEXTRINS, THEIR PREPARATION PROCESSES AND USES IN THE PHARMACEUTICAL FIELD” (Universita'Degli Studi di Roma "La Sapienza", priority 2007, dated 2008)

Assay: Solubility tests on SAHA in aqueous HPβCD solutions by UV spectrophotometry
Assay type: physicochemical
Conditions: for Concentration: dissolved SAHA in the filtered solution brought to 10 ml, by Lambert and Beer's law with mean ε; for Assorbance (AU): water, one week stirring at room temperature, filtered, brought to 10 ml, read at 240 nm
Description: Five aqueous solutions of SAHA in cyclodextrin were prepared, maintaining a constant amount of drug and gradually increasing the cyclodextrin concentraion.
Two mg of SAHA (0.0075 mmol) are weighed in five assay tubes and to each is added 1 ml of a solution of 2-hydroxypropyl-β-cyclodextrin (HPβCD) in double-distilled water; we started with a molar ratio of 1:1 corresponding to 0.0116 g of cyclodextrin, proceeding then with molar ratios of 1:2 corresponding to 0.0232 g, 1:3 corresponding to 0.035 g, 1:4 corresponding to 0.046, up to a final ratio of 1:5, corresponding to 0.058 g of cyclodextrin.
The tubes thus prepared and well sealed are left for one week under stirring in a mechanical stirrer at room temperature.
At the end of this period, the solutions are filtered with a 0.5 µm diameter membrane filter in five 10 ml round-bottomed flasks brought to volume with double-distilled water, and the spectrophotometric readings are taken at 240 nm.
From the mean value of ε calculated previously, and using Lambert and Beer's law, the millimolar concentrations of the five solutions can be calculated, as shown in the table.

O=C(CCCCCCC(=O)Nc1ccccc1)NO [SAHA, suberoylanilide hydroxamic acid]
Concentration (SAHA:HPβCD molar ratio 1:1): 126 µM | Assorbance (AU) (SAHA:HPβCD molar ratio 1:1): 1.6862 AU | Concentration (SAHA:HPβCD molar ratio 1:2): 191 µM | Assorbance (AU) (SAHA:HPβCD molar ratio 1:2): 2,5591 AU | Concentration (SAHA:HPβCD molar ratio 1:3): 196 µM | Assorbance (AU) (SAHA:HPβCD molar ratio 1:3): 2.6196 AU | Concentration (SAHA:HPβCD molar ratio 1:4): 207 µM | Assorbance (AU) (SAHA:HPβCD molar ratio 1:4): 2.7752 AU | Concentration (SAHA:HPβCD molar ratio 1:5): 216 µM | Assorbance (AU) (SAHA:HPβCD molar ratio 1:5): 2.8932 AU
